pKi: −log10 of the molar value.
What follows are compounds tested against CDK2 (human) (UniProt P24941) (assay: Enzyme Assay).

pKi, > 6.00:
O=c1[nH][nH]c2cc(Sc3nc(Nc4cc[nH]n4)c4ccccc4n3)ccc12, Cc1cc(Nc2cc(COCCN(C)C)nc(Sc3ccc4c(=O)[nH][nH]c4c3)n2)n[nH]1, O=c1[nH][nH]c2cc(Nc3nc(Nc4cc(C5CC5)[nH]n4)c4cc(N5CCCCC5)ccc4n3)ccc12, O=c1[nH][nH]c2cc(Sc3nc(Nc4cc(C5CC5)[nH]n4)c4cccc(F)c4n3)ccc12, COc1cccc2c(Nc3cc(C)[nH]n3)nc(Sc3ccc4c(=O)[nH][nH]c4c3)nc12, O=c1[nH][nH]c2cc(Cl)c(-c3nc(Nc4n[nH]c5ccc(F)cc45)c4cnoc4n3)cc12, O=c1[nH][nH]c2cc(NCCCNc3ccccn3)ccc12, O=c1[nH][nH]c2cc(OC(CCNc3ccccn3)Cc3ccccc3)ccc12 (stereo unspecified), Cc1cc(Nc2nc(-c3cc4c(=O)[nH][nH]c4cc3-c3ccccc3)nc3ccccc23)n[nH]1, O=c1[nH][nH]c2cc(C(F)(F)F)c(-c3nc(Nc4n[nH]c5c(F)cc(F)cc45)c4cnsc4n3)cc12, O=c1[nH][nH]c2cc(OC3CCC(Nc4nccnn4)C3)ccc12 (stereo unspecified), Cc1cc(Nc2nc(CCc3ccc4[nH][nH]c(=O)c4c3)nc3c2CCCC3)n[nH]1, O=c1[nH][nH]c2cc(Sc3cc(Nc4cc(C5CC5)[nH]n4)c4ccccc4n3)ccc12, Cn1cnc(NC2CCC(Oc3ccc4c(=O)[nH][nH]c4c3)C2)c1 (stereo unspecified), Cn1cnc(NC2COCC(SCc3ccc4c(=O)[nH][nH]c4c3)C2)c1 (stereo unspecified), Cc1cnc(NC2COCC(Nc3ccc4c(=O)[nH][nH]c4c3)C2)s1 (stereo unspecified), Cc1nc(-c2ccc3[nH][nH]c(=O)c3c2Cl)nc(Nc2n[nH]c(C3CCCC3)n2)c1C, O=C(CCNc1ccc2c(=O)[nH][nH]c2c1)Nc1ccccn1, Cc1cccc2c(Nc3cc(-c4ccccc4)[nH]n3)nc(-c3ccc4[nH][nH]c(=O)c4c3OC(F)(F)F)nc12, O=c1[nH][nH]c2cc(OCCC(Nc3cc(C4CC4)[nH]n3)c3ccccc3)ccc12 (stereo unspecified), O=c1[nH][nH]c2cc(OCCONc3cc(C4CC4)[nH]n3)ccc12, Cc1cc(Nc2nc(-c3cc4c(=O)[nH][nH]c4cc3C(F)(F)F)nc3cnoc23)n[nH]1, Cn1cnc(NC(CCOc2ccc3c(=O)[nH][nH]c3c2)c2ccccc2)c1 (stereo unspecified), O=c1[nH][nH]c2cc(CC3COCC(Nc4cc(C5CC5)[nH]n4)C3)ccc12 (stereo unspecified), COC[C@H]1CCN(C(=O)c2cc(Nc3nc(-c4ccc5[nH][nH]c(=O)c5c4)nc4ccccc34)n[nH]2)C1, O=c1[nH][nH]c2ccc(C3COCC(Nc4nccnn4)C3)cc12 (stereo unspecified), O=c1[nH][nH]c2cc(OCCONc3nccnn3)ccc12, O=c1[nH][nH]c2cc(NC3COCC(Nc4cc(C5CC5)[nH]n4)C3)ccc12 (stereo unspecified), Cc1cc(Nc2nc(-c3ccc4[nH][nH]c(=O)c4c3)nc3cnccc23)n[nH]1, Cn1cnc(NCCC(Cc2ccccc2)Sc2ccc3c(=O)[nH][nH]c3c2)c1 (stereo unspecified), COc1ccc(-c2cc(Nc3cc(C)[nH]n3)nc(Oc3ccc4c(=O)[nH][nH]c4c3)n2)cc1, O=c1[nH][nH]c2cc(NOCCNc3ccccn3)ccc12, Cc1cc(Nc2nc(Sc3ccc4c(=O)[nH][nH]c4c3)nc3cc(NO)ccc23)n[nH]1, Cc1ccc2nc(Nc3ccc4c(=O)[nH][nH]c4c3)nc(Nc3cc(C)[nH]n3)c2n1, O=c1[nH][nH]c2ccc(-c3nc(Nc4cc(C5CC5)[nH]n4)c4ccccc4n3)c(C(F)(F)F)c12, O=c1[nH][nH]c2cc(CCCONc3ccccn3)ccc12, O=c1[nH][nH]c2cc(NC3CCC(Nc4nccnn4)C3)ccc12 (stereo unspecified), O=c1[nH][nH]c2cc(NCCONc3ccccn3)ccc12, O=c1[nH][nH]c2cc(NC3CCCC(Nc4cc(C5CC5)[nH]n4)C3)ccc12 (stereo unspecified), O=c1[nH][nH]c2cc(CC3CCCC(Nc4cc(C5CC5)[nH]n4)C3)ccc12 (stereo unspecified), CN1CCN(C(=O)OCc2ccccc2)CC1c1cc(Nc2n[nH]c3ccccc23)nc(-c2ccc3[nH][nH]c(=O)c3c2C(F)(F)F)n1 (stereo unspecified), Cc1cc(Nc2cc(COc3ccc4c(=O)[nH][nH]c4c3)nc3c2CCCCC3)n[nH]1, Cc1cc(Nc2cc(C(=O)N3CCN(C)CC3)nc(Sc3ccc4c(=O)[nH][nH]c4c3)n2)n[nH]1, O=c1[nH][nH]c2cc(CC(CCNc3ccccn3)Cc3ccccc3)ccc12 (stereo unspecified), Cc1cc(Nc2cc(N3CCN(C)CC3)nc(Oc3ccc4c(=O)[nH][nH]c4c3)n2)n[nH]1, Cc1cnc(NC(=O)CC(=O)Nc2ccc3c(=O)[nH][nH]c3c2)s1, Cc1cc(Nc2nc(Sc3ccc4c(=O)[nH][nH]c4c3)nc3cc(OCCCN4CCOCC4)ccc23)n[nH]1, Cc1cc(Nc2nc(Nc3ccc4c(=O)[nH][nH]c4c3)nc(C)c2C)n[nH]1, Cc1cnc(Nc2cccc(Nc3ccc4c(=O)[nH][nH]c4c3)c2)s1, Cc1cnc(NC(=O)CC(=O)Oc2ccc3c(=O)[nH][nH]c3c2)s1, O=c1[nH][nH]c2cc(C(F)(F)F)c(-c3nc4c(c(Nc5n[nH]c6ccc(F)cc56)n3)OCCCC4)cc12, O=c1[nH][nH]c2ccc(CNc3cc(Nc4cc(C5CC5)[nH]n4)c4ccccc4n3)cc12, O=c1[nH][nH]c2cc(OC3COCC(Nc4ccccn4)C3)ccc12 (stereo unspecified), O=c1[nH][nH]c2cc(CCC3CCC(Nc4nccnn4)C3)ccc12 (stereo unspecified), O=c1[nH][nH]c2cc(Oc3nc(Nc4cc(C5CC5)[nH]n4)c4ccccc4n3)ccc12, O=c1[nH][nH]c2cc([C@@H]3C[C@H]3c3nc(Nc4n[nH]c5c(F)cccc45)c4ccccc4n3)ccc12, Cc1cc(Nc2nc(COc3ccc4[nH][nH]c(=O)c4c3)nc3c2CCCCC3)n[nH]1, O=c1[nH][nH]c2cc(Nc3cc(Nc4cc(C5CC5)[nH]n4)ncn3)ccc12, O=c1[nH][nH]c2ccc(-c3nc(Nc4n[nH]c5cccc(Cl)c45)c4ccccc4n3)c(C(F)(F)F)c12, Cc1cccc(-c2cc(Nc3cc(C)[nH]n3)nc(Oc3ccc4c(=O)[nH][nH]c4c3)n2)c1, COc1ccc2c(Nc3cc(C)[nH]n3)nc(Sc3ccc4c(=O)[nH][nH]c4c3)nc2c1, CNC(=O)c1cc(Nc2cc(C)[nH]n2)nc(Sc2ccc3c(=O)[nH][nH]c3c2)n1, Cn1cnc(NC2CCC(Nc3ccc4c(=O)[nH][nH]c4c3)C2)c1 (stereo unspecified), O=c1[nH][nH]c2cc(Nc3cccc(Nc4n[nH]c5ccccc45)n3)ccc12, Cc1cc(Nc2cc(-c3c(C)cccc3C)nc(Sc3ccc4c(=O)[nH][nH]c4c3)n2)n[nH]1, Cc1cc(Nc2nc([C@@H]3C[C@H]3c3ccc4c(=O)[nH][nH]c4c3)nc3ccccc23)n[nH]1, Cc1cnc(NCCCNc2ccc3c(=O)[nH][nH]c3c2)s1, O=c1[nH][nH]c2cc(CCCC(Nc3cc(C4CC4)[nH]n3)c3ccccc3)ccc12 (stereo unspecified), O=c1[nH][nH]c2cc(CC(CCNc3cc(C4CC4)[nH]n3)Cc3ccccc3)ccc12 (stereo unspecified), Cc1cc(Nc2nc(Sc3ccc4c(=O)[nH][nH]c4c3)nc3cc(N)ccc23)n[nH]1, Cc1cc(Nc2cc(-c3ccccc3)[nH]n2)nc(-c2ccc3[nH][nH]c(=O)c3c2)n1, O=c1[nH][nH]c2cc(OCCCNc3cc(C4CC4)[nH]n3)ccc12, CC(C)(c1ccc2c(=O)[nH][nH]c2c1)C1CCC(Nc2ccccn2)C1 (stereo unspecified), O=C1CCc2c(nc(-c3ccc4[nH][nH]c(=O)c4c3)nc2Nc2n[nH]c3ccccc23)C1, Cc1cc(Nc2cc(-c3ccccc3)[nH]n2)nc(COc2ccc3c(=O)[nH][nH]c3c2)n1, O=c1[nH][nH]c2cc(SCCONc3cc(C4CC4)[nH]n3)ccc12, O=c1[nH][nH]c2cc(COCc3cc4ccccc4c(Nc4cc(C5CC5)[nH]n4)n3)ccc12, Cc1cc(Nc2cc(Sc3ccc4c(=O)[nH][nH]c4c3)nc3ccccc23)n[nH]1, O=c1[nH][nH]c2cc(Sc3nc(Nc4cc(C5CC5)[nH]n4)cc(-c4ccccc4)n3)ccc12, O=c1[nH][nH]c2cc(Nc3nc(Nc4n[nH]c5cccc(F)c45)c4ccccc4n3)ccc12, O=c1[nH][nH]c2cc(C(F)(F)F)c(-c3cc(-c4ccncc4)nc(Nc4cc(C5CC5)[nH]n4)n3)cc12, O=c1[nH][nH]c2ccc(-c3nc4c(c(Nc5n[nH]c6ccc(F)cc56)n3)CCC4)c(C(F)(F)F)c12, O=c1[nH][nH]c2cc(NC3CCC(Nc4ccccn4)C3)ccc12 (stereo unspecified), O=C(CCNc1ccccn1)Oc1ccc2c(=O)[nH][nH]c2c1, O=c1[nH][nH]c2cc(Nc3ccc([N+](=O)[O-])c(Nc4cc(C5CC5)[nH]n4)n3)ccc12, Cc1cc(Nc2nc(Nc3ccc4c(=O)[nH][nH]c4c3)nc3c2CCCC3)n[nH]1

From the Kinase Knowledgebase extract (Sharma et al. 2016)
